Earlier results, collected in patent publication US8138336B2, “Pyrrolotriazine derivatives useful for treating cancer through inhibition of aurora kinase” (Bayer HealthCare LLC, priority 2007, dated 2012).
Read-outs that look alike come from different tables or passages of the source.

Test system: breast tumors

Structure (SMILES): CC(=O)O[C@@]12CO[C@@H]1C[C@H](O)[C@@]1(C)C(=O)[C@H](O)C3=C(C)[C@@H](OC(=O)[C@H](O)[C@@H](NC(=O)OC(C)(C)C)c4ccccc4)C[C@@](O)([C@@H](OC(=O)c4ccccc4)[C@H]21)C3(C)C [Docetaxel]
- response rate to Docetaxel treatment (patients with breast tumors with high Aurora-A mRNA levels): 41%
- response rate to Docetaxel treatment (patients with low Aurora-A mRNA breast tumors): 71%
